# Measured values from ChEMBL document CHEMBL1129332, “2-Phenyl-4-quinolinecarboxamides: a novel class of potent and selective non-peptide competitive antagonists for the human neurokinin-3 receptor” (J Med Chem, 1996).
# Legend:
# [1] = target: T1, Substance-K receptor (Homo sapiens, UniProt P21452); format: cell membranes, CHO
# T1 sequence (P21452 whole entry): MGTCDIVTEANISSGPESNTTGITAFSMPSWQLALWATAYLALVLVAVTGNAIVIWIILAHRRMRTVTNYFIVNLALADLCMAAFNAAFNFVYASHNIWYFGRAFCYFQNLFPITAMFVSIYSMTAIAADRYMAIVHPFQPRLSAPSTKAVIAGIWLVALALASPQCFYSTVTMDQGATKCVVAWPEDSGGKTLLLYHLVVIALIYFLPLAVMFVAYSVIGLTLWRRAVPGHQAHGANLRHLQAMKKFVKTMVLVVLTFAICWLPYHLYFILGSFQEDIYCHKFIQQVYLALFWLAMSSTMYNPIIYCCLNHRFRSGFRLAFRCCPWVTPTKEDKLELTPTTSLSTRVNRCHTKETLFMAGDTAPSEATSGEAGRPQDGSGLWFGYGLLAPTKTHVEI
# [2] = target: T2, Substance-P receptor (Homo sapiens, UniProt P25103); experiment: Binding Affinity of [3H]- substance P towards Tachykinin receptor 1-CHO cell membranes (n=3-8)
# [3] = species: Oryctolagus cuniculus; experiment: Antagonism of senktide-induced contraction in rabbit isolated iris sphincter muscle; format: functional
# [4] = target: T2, Substance-P receptor; experiment: Binding affinity against hTachykinin receptor 1 for the displacement of [3H]-substance P binding from Tachykinin receptor 1 CHO membrane
# T2 sequence (P25103 whole entry): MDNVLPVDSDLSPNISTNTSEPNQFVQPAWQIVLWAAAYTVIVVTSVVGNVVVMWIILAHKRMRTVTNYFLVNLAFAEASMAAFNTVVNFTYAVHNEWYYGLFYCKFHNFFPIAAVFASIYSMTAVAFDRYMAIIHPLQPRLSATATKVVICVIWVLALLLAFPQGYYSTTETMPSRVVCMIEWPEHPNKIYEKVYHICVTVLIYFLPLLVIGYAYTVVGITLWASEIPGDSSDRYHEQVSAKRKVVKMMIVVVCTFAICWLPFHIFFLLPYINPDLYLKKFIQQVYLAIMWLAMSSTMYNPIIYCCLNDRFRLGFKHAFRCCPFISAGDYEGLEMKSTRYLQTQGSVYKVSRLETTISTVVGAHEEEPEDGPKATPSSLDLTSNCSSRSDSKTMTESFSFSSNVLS
Compound,Ki [1],Ki [2],Kb [3],Ki [4]
COC(=O)C(NC(=O)c1cc(-c2ccccc2)nc2ccccc12)c1ccccc1 (configuration not stated),2950 nM,> 100000 nM,,
COC(=O)[C@@H](NC(=O)c1cc(-c2ccccc2)nc2ccccc12)c1ccccc1,1220 nM,> 100000 nM,,
CC[C@H](NC(=O)c1c(C)c(-c2ccccc2)nc2ccccc12)c1ccccc1 [SB-222200],277 nM,> 100000 nM,,
COC(=O)[C@H](NC(=O)c1cc(-c2ccccc2)nc2ccccc12)c1ccccc1,8330 nM,> 100000 nM,,
CC(=O)N(C)C1(c2ccccc2)CCN(CCC[C@]2(c3ccc(Cl)c(Cl)c3)CCCN(C(=O)c3ccccc3)C2)CC1 [OSANETANT],,,2 nM,
CC[C@H](NC(=O)c1cc(-c2ccccc2)nc2ccccc12)c1ccccc1 [AZD-7624],237 nM,> 100000 nM,,
COc1ccc2c(C(=O)NCc3ccccc3)cc(-c3ccccc3)nc2c1,,,,> 10000 nM
